Two molecules from article PMC4964461, “Synthesis and Evaluation of Tricarbonyl ^99mTc-Labeled 2-(4-Chloro)phenyl-imidazo[1,2-a]pyridine Analogs as Novel SPECT Imaging Radiotracer for TSPO-Rich Cancer” (International Journal of Molecular Sciences, 2016) can be followed below.

For this assay, the target named is T1, 18-kDa translocator protein (TSPO) (Rattus norvegicus, UniProt P16257).
T1 construct: native TSPO in rat C6 glioma cell membranes
In words: [3H]-PK […] radioligand displacement on C6 glioma membrane extracts. Format: binding. Particulars: read-out: Ki (nM) for TSPO.

`CCCN(CCC)C(=O)Cc1c(-c2ccc(Cl)cc2)nc2c(NC(=O)CN(Cc3ccccn3)Cc3ccccn3)cccn12` [compound 3]: the inhibitory constant (Ki) turned out to be 148 ± 11.3 nM. Under `CCCN(CCC)C(=O)Cc1c(-c2ccc(Cl)cc2)nc2c(NC(=O)C[N+]34Cc5cccc[n+]5[Re-5]3([C]#[O+])([C]#[O+])([C]#[O+])[n+]3ccccc3C4)cccn12` (centres unmarked) [compound 2, Re-CB256] stands 159 ± 8.7 nM.

A word on the Ki: it is a measure of affinity in units of concentration, obtained from inhibition or displacement.
